Measured values taken from PMC4995097, “Talin-KANK1 interaction controls the recruitment of cortical microtubule stabilizing complexes to focal adhesions” (eLife, 2016).

What was measured:
[1] = tested on: focal adhesions in HeLa cells; assay: TIRFM localization of GFP-tagged KANK1 constructs relative to focal adhesions; assay type: cell-based, human; conditions: live HeLa cells with mCherry- or TagRFP-paxillin
Method: HeLa Kyoto cell line was described previously ([Lansbergen et al., 2006]; [Mimori-Kiyosue et al., 2005]). HEK293T cells were purchased from ATCC; culture and transfection of DNA and siRNA into these cell lines was performed as previously described ([van der Vaart et al., 2013]). HaCaT cells were purchased at Cell Line Service (Eppelheim, Germany) and cultured according to manufacturer’s instructions. The cell lines were routinely checked for mycoplasma contamination using LT07-518 Mycoalert assay (Lonza, Switzerland).The identity of the cell lines was monitored by immunofluorescence-staining-based analysis with multiple markers. Blebbistatin was purchased from Enzo Life Sciences and used at 50 μM. Serum starvation in HeLa cells was done for 48 hr and focal adhesion assembly was stimulated by incubation with fetal calf serum-containing medium with or without blebbistatin for 2 hr. ROCK1 inhibitor Y-27632 was purchased at Sigma-Aldrich and used at 1 or 10 μM. Double stable HeLa cell line expressing GFP-KANK1 and TagRFP-paxillin was made by viral infection. We used a pLVIN-TagRFP-paxillin-based lentivirus and a pQC-GFP-KANK1-based retrovirus packaged in HEK293T cells using respectively Lenti-X HTX packaging and pCL-Ampho vectors. Antibiotic selection was applied to cells 48 hr after infection using 500 μg/ml G418 (Geneticin, Life Technologies) and 1 μg/ml puromycin (InvivoGen). […]

GFP-talin1 = assay: Streptavidin pull down of BioGFP-KANK1 constructs with GFP-talin1, Western blot; assay type: binding, mouse; conditions: 4A mutation introduced into the construct; HEK293T cells, Figure 3A
Source text: BioGFP-tagged KANK1 mutants were constructed using PCR and pBioGFP-C1 vector as previously described ([van der Vaart et al., 2013]). Rescue constructs for BioGFP-tagged KANK1 were either based on the version previously described ([van der Vaart et al., 2013]) or a version obtained by PCR-based mutagenesis of the sequence […] to […]. mCherry-tagged paxillin construct was made by replacing GFP from pQC-GPXN ([Bouchet et al., 2011]) by mCherry (pmCherry-C1, Clontech). TagRFP-tagged paxillin construct was made by PCR-based amplification and cloning in pTagRFP-T-C1 (kind gift from Y. Mimori-Kiyosue, Riken Institute, Japan). HA-tagged KANK1 construct was generated by cloning KANK1 coding sequence into pMT2-SM-HA (gift of C. Hoogenraad, Utrecht University, The Netherlands). pLVX-IRES-Neo (pLVIN) vectors was constructed by cloning the IRES-neomycin resistance cassette from the pQCXIN plasmid (Clontech) into the pLVX-IRES-Puro plasmid (Clontech). […]
Streptavidin-based pull down assays of biotinylated proteins expressed using pBioGFP-C1 constructs transfected in HEK293T cells was performed and analyzed as previously described ([van der Vaart et al., 2013]). […] For RP-nanoLC-MS/MS, samples were resuspended in 10% formic acid (FA) / 5% DMSO and was analyzed using a Proxeon Easy-nLC100 (Thermo Scientific) connected to an Orbitrap Q-Exactive mass spectrometer. […]

For “KN domain: GFP-tagged KN domain of KANK1 (residues 30–68)”, the “localization relative to FAs, endogenous KANK1/2 present (in words)” value [1] was “strongly and specifically accumulated within FAs” and the “effect of 4A mutation on interaction with talin1 (in words)” value (GFP-talin1) was “An even stronger reduction was observed”.
